Test results taken from ChEMBL document CHEMBL1201862, “PubChem BioAssay data set” (2004).
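A five-concentration, 48-hour dose response in 96-well plates underlies each endpoint, interpolated linearly between surrounding concentrations. At the GI50, growth is halved.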 Activity calls are given as the source filed them. Rule as the data show it: active = GI50 up to about 1.1 µM and inactive = higher.

Legend:
Experiment in all cases: DTP human tumour cell line panel, 48 h
SF-268 = test system: SF-268
NCI-H226 = test system: NCI-H226
HT-29 = test system: HT-29
SK-MEL-28 = test system: SK-MEL-28
HL-60 = test system: HL-60
CCRF-CEM = test system: CCRF-CEM
IGROV-1 = test system: IGROV-1
M14 = test system: M14
SW-620 = test system: SW-620
SF-295 = test system: SF-295
Malme-3M = test system: Malme-3M
ACHN = test system: ACHN
KM12 = test system: KM12
NCI-H23 = test system: NCI-H23
LOX IMVI = test system: LOX IMVI

Measured: GI50

O=C1C(=O)N(c2ccc(Cl)cc2Cl)C(=O)C(=O)C1c1nc2ccccc2o1
inactive: SF-268 > 100 µM | NCI-H226 > 100 µM | HT-29 > 100 µM | SK-MEL-28 > 100 µM | HL-60 > 100 µM | CCRF-CEM 93.8 µM | IGROV-1 > 100 µM | M14 > 100 µM | SW-620 > 100 µM | SF-295 > 100 µM | Malme-3M > 100 µM | ACHN > 100 µM | KM12 > 100 µM | NCI-H23 > 100 µM

CC1=NN(c2ccccc2)C(=O)C1/N=N/c1ccc(Br)c(C)c1 (centres undefined)
inactive: SF-268 > 10 µM | NCI-H226 > 100 µM | HT-29 > 100 µM | SK-MEL-28 > 100 µM | HL-60 > 100 µM | CCRF-CEM 55.7 µM | IGROV-1 > 100 µM | M14 > 100 µM | SW-620 > 100 µM | SF-295 > 100 µM | Malme-3M > 100 µM | ACHN > 100 µM | KM12 > 100 µM | NCI-H23 > 100 µM

CCOC(=O)c1cnc2c(ccc3ncccc32)c1OCC
inactive: SF-268 > 100 µM | NCI-H226 > 100 µM | HT-29 > 100 µM | SK-MEL-28 > 100 µM | HL-60 > 100 µM | CCRF-CEM 59.6 µM | LOX IMVI > 100 µM | IGROV-1 > 100 µM | M14 > 100 µM | SW-620 > 100 µM | Malme-3M > 100 µM | ACHN > 100 µM | KM12 > 100 µM | NCI-H23 > 100 µM

COC(=O)C(C(=O)OC)C1CCCC(=O)C1 (centres undefined)
inactive: SF-268 > 100 µM | HT-29 > 100 µM | SK-MEL-28 > 100 µM | HL-60 > 100 µM | CCRF-CEM > 100 µM | LOX IMVI > 100 µM | IGROV-1 > 100 µM | M14 > 100 µM | SW-620 > 100 µM | SF-295 > 100 µM | Malme-3M > 100 µM | ACHN > 100 µM | KM12 > 100 µM | NCI-H23 > 100 µM

COc1cc(C)c(O)c(C(=O)O)c1
inactive: SF-268 > 100 µM | NCI-H226 > 100 µM | HT-29 > 100 µM | SK-MEL-28 > 100 µM | CCRF-CEM > 100 µM | LOX IMVI > 100 µM | IGROV-1 > 100 µM | M14 > 100 µM | SW-620 > 100 µM | SF-295 > 100 µM | Malme-3M > 100 µM | ACHN > 100 µM | KM12 > 100 µM | NCI-H23 > 100 µM

CCCC1C(=O)CCc2c(OC)ccc(OC)c21 (centres undefined)
inactive: SF-268 91.8 µM | HT-29 > 100 µM | HL-60 73.8 µM | CCRF-CEM 72.3 µM | LOX IMVI > 100 µM | IGROV-1 > 100 µM | M14 > 100 µM | SW-620 > 100 µM | SF-295 > 100 µM | Malme-3M > 100 µM | ACHN > 100 µM | KM12 > 100 µM | NCI-H23 > 100 µM

CC(C)(C)NC(=O)C12C3C4C1C1C2C3C41I (centres undefined)
inactive: NCI-H226 > 100 µM | HT-29 > 100 µM | SK-MEL-28 > 100 µM | HL-60 > 100 µM | CCRF-CEM > 100 µM | LOX IMVI > 100 µM | SW-620 > 100 µM | SF-295 > 100 µM | Malme-3M > 100 µM | KM12 > 100 µM | NCI-H23 > 100 µM

NC1=NCCC1(c1ccccc1)c1ccccn1 (centres undefined)
inactive: SF-268 > 100 µM | NCI-H226 > 100 µM | HT-29 > 100 µM | SK-MEL-28 > 100 µM | HL-60 > 100 µM | CCRF-CEM > 100 µM | IGROV-1 > 100 µM | M14 > 100 µM | SW-620 > 100 µM | SF-295 > 100 µM | Malme-3M > 100 µM | ACHN > 100 µM | KM12 > 100 µM | NCI-H23 > 100 µM

CCN(CC)CCCNC(=O)Cc1ccccc1Nc1c(Cl)cccc1Cl
inactive: SF-268 16.1 µM | NCI-H226 18.5 µM | HT-29 4.48 µM | SK-MEL-28 12.5 µM | HL-60 11.8 µM | CCRF-CEM 11.7 µM | LOX IMVI 12.3 µM | IGROV-1 18.4 µM | M14 2.82 µM | SW-620 16.8 µM | SF-295 18 µM | ACHN 8.53 µM | KM12 19.8 µM | NCI-H23 17.9 µM

COc1ccc([C@@H]2C[C@@H]3C(=O)OC(=O)[C@@H]3c3c2c2ccccc2n3C)cc1
inactive: SF-268 > 100 µM | NCI-H226 > 100 µM | HT-29 > 100 µM | SK-MEL-28 > 100 µM | HL-60 > 100 µM | CCRF-CEM > 100 µM | IGROV-1 > 100 µM | M14 > 100 µM | SW-620 > 100 µM | SF-295 > 100 µM | Malme-3M > 100 µM | KM12 > 100 µM | NCI-H23 > 100 µM

CC[N+](CC)(CC)Cc1cn(S(=O)(=O)c2ccccc2)c2ccccc12
inactive: SF-268 > 100 µM | NCI-H226 > 100 µM | HT-29 > 100 µM | SK-MEL-28 > 100 µM | HL-60 > 100 µM | CCRF-CEM > 100 µM | IGROV-1 > 100 µM | M14 > 100 µM | SW-620 > 100 µM | SF-295 > 100 µM | Malme-3M > 100 µM | ACHN > 100 µM | KM12 > 100 µM | NCI-H23 > 100 µM
